One molecule from patent US7419776B1, “Method of reducing pathogen load” (priority 1999, dated 2008) can be followed below.

The subject of the experiment is Candida albicans. Kind of experiment: Fungal load: patient with severe candidiasis (present-tense example). Type of experiment: in vivo, human. Particulars: two weeks, before YG Product. The procedure:
The following present-tense examples are intended to illustrate and summarize the teachings of the preceding examples that describe actual clinical data with over 100 AIDS and ARC patients.
The candidiasis clears. A dose is administered by one of the following routes: intradermally, subcutaneously, orally, transmucosally, sublingually, or transdermally.

`OC(Cn1cncn1)(Cn1cncn1)c1ccc(F)cc1F` [Fluconazole]: the “effect of antifungal treatment alone on severe candidiasis” value was “without effect”.
